Data published in PMC9293909 (Nature Communications, 2022).
Values joined by “and” are separate entries in the source; they are usually repeats but may differ in a detail not shown here. Equal values may be shown once.

Experiments:
rA3R = target: T1, rA3R (Rattus norvegicus, UniProt P28647); test: cAMP inhibition at rA3R (Flp-In-CHO); type: cell-based; details: for Range rA3R: range of response as percentage of response to 10 μM forskolin
T1 construct: expressed in transfected cells; host or cells: Flp-In-CHO (ThermoFisher R75807), pcDNA5/FRT
T1 sequence (P28647 1-320): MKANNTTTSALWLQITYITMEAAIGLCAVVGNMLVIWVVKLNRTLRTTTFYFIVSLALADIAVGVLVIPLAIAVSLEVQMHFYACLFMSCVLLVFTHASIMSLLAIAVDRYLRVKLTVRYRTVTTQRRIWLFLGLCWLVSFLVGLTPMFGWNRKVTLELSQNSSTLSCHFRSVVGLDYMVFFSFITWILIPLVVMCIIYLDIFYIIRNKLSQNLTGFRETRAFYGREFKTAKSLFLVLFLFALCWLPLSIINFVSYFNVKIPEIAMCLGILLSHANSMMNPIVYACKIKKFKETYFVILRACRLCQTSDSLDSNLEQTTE
From the text: Cell lines were maintained using standard subculturing routines as guided by the European Collection of Cell Culture (ECACC) and checked annually for mycoplasma infection using an EZ-PCR mycoplasma test kit from Biological Industries (Kibbutz Beit-Haemek, Israel). To investigate the signalling properties of the rat A3R (rA3R) and mutants of the human A1R (hA1R), stable cell lines were generated using Flp-In-CHO cells (ThermoFisher - R75807). Untagged hA1R from sigNanoLuciferase (Nluc)-A1R in pcDNA3.1+ and untagged rA3R from sigNluc-A3R in pcDNA3.1 + (both gifted by Dr Steve Briddon (University of Nottingham)) were cloned into the pcDNA5/FRT expression vector (Thermo Fisher Scientific). Mutations within the hA1R were made using the QuikChange Lightening Site-Directed Mutagenesis Kit (Agilent Technologies) in accordance with the manufacturer’s instructions. Constructs for generating Goa/b interfering and scrambled peptides were generated by PCR and cloned into the BamHI/HindIII site of pcDNA3.1- as described in Gilchrist et al.[60],. Prior to the initiator codon a Kozak sequence was included for enhanced translation. The peptide sequences used were: for Goa […], for Gob […], and for the scrambled peptide […] was used. Constructs were sequenced to confirm fidelity. Flp-In-CHO cells were generated through co-transfection of the cell line with pcDNA5/FRT expression vector (Thermo Fisher Scientific) containing the WT or mutant hA1R, or rA3R, and the Flp recombinase expressing plasmid, pOG44 (Thermo Fisher Scientific), in accordance with the manufacturer’s instructions. […] CHO cell lines expressing ARs of interest (including mutants of the hA1R) were routinely cultured in Ham’s F-12 nutrient mix supplemented with 10% foetal bovine serum (FBS), at 37 °C with 5% CO2, in a humidified atmosphere.

hA1R [1] = target: T2, hA1R (Homo sapiens, UniProt P30542); test: cAMP inhibition in CHO-K1-hA1R cells (forskolin co-stimulation); details: for cAMP levels, co-stimulation with 1 μM forskolin and agonist (Fig. 1biii): individual repeats and mean; for Range hA1R: range of response as percentage of response to 10 μM forskolin
T2 sequence (P30542 1-326): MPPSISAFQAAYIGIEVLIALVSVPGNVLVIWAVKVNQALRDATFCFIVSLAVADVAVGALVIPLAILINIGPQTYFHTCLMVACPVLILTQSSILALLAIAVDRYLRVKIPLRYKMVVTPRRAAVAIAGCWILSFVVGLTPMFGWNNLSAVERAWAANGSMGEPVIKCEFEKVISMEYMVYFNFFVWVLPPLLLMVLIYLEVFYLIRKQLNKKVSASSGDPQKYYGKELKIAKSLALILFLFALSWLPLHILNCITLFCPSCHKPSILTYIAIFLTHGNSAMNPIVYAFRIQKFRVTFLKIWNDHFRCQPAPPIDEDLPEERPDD
Description: All in vitro cell signalling assay data was analysed using Prism 8.4 (Graphpad software, San Diego, CA), with all concentration-response curves being fitted using a 3 parameter logistic equation to calculate response range and IC50. All cAMP data was normalised to a forskolin concentration-response curve ran in parallel to each assay.

[2] = system: postsynaptic A1Rs, CA1 pyramidal cells; test: Whole-cell patch-clamp, membrane potential of CA1 pyramidal cells; type: cell-based, rat
Description: Rats were kept on a 12-hour light-dark cycle with slices made 90 min after entering the light cycle. […] The brain was removed, cut down the midline and the two sides of the brain stuck down to a metal base plate using cyanoacrylate glue. […] Slices were stored at 34 °C for 1–6 h in aCSF (1 mM MgCl2, 2 mM CaCl2) before use.
A slice was transferred to the recording chamber and perfused at 3 ml min^−1 with aCSF at 32 ± 0.5 °C. Slices were visualised using IR-DIC optics with an Olympus BX151W microscope (Scientifica) and a CCD camera (Hitachi). […] Voltage and current recordings were obtained using an Axon Multiclamp 700B amplifier (Molecular Devices, USA) and digitised at 20 KHz. Data acquisition and analysis was performed using pClamp 10 (Molecular Devices, USA). For voltage-clamp experiments, CA1 pyramidal cells were held at −60 mV. Peptides to interfere with G protein signalling were introduced via the patch pipette into the recorded cell.

hA1R [3] = target: T2, hA1R; test: Radioligand displacement of [3H]-DPCPX, CHO-K1-hA1R membranes; type: binding; design: expressed in transfected cells; [3H]DPCPX binding, agonist displacement (Fig. 1bii): unit not given here; details: for [3H]DPCPX binding, agonist displacement (Fig. 1bii): individual repeats and mean
Description: Radioligand displacement assays were conducted using crude membrane preparations (100 μg protein per tube) acquired from homogenisation of CHO-K1-hA1R cells in ice-cold buffer (2 mM MgCl2, 20 mM HEPES, pH 7.4). […] Non-specific binding was determined in the presence of 10 μM DPCPX. Membrane incubations were conducted in Sterilin™ scintillation vials (Thermo Fisher Scientific; Wilmington, Massachusetts, USA) for 60 min at room temperature. Free radioligand was separated from bound radioligand by filtration through Whatman® glass microfiber GF/B 25 mm filters (Sigma-Aldrich). Each filter was then placed in a Sterilin™ scintillation vial and radioactivity determined by: addition of 4 mL of Ultima Gold XR liquid scintillant (PerkinElmer), overnight incubation at room temperature and the retained radioactivity determined using a Beckman Coulter LS 6500 Multi-purpose scintillation counter (Beckman Coulter Inc.; Indiana, USA).
Radioligand displacement curves were fitted to the one-site competition binding equation yielding log(Ki) values.

In the case of OC[C@H]1O[C@@H](n2cnc3c(NC4CCCC4)ncnc32)[C@H](O)[C@@H]1O [CPA, N^6-Cyclopentyladenosine], the “Range rA3R” value (rA3R) is reported as 68.79 ± 3.67%, the “cAMP levels, co-stimulation with 1 μM forskolin and agonist (Fig. 1biii)” value (shortened to “cAMP levels, co-stimulation”) (hA1R [1]; Log [Agonist] -6) is reported as 40.1 and 40.118 and 40.1062 and 40.1555 and 40.1419 and 40.1089 and 40.1054 and 40.1072 and 40.1135 and 40.1134 and 40.1344 and the “cAMP levels, co-stimulation” value (hA1R [1]; Log [Agonist] -7) is reported as 40.4 and 40.3687 and 40.2515 and 40.737 and 40.6042 and 40.2784 and 40.2436 and 40.2615 and 40.3242 and 40.3231 and 40.5303. For the same compound, the “cAMP levels, co-stimulation” value (hA1R [1]; Log [Agonist] -8) was 42.9 and 42.7424 and 41.659 and 45.8766 and 44.7904 and 41.911 and 41.5838 and 41.7525 and 42.336 and 42.3262 and 44.1655, the “cAMP levels, co-stimulation” value (hA1R [1]; Log [Agonist] -9) was 57.8 and 57.9585 and 52.2853 and 68.2239 and 65.3823 and 53.7555 and 51.8264 and 52.843 and 56.017 and 55.9674 and 63.4546 and the “cAMP levels, co-stimulation” value (hA1R [1]; Log [Agonist] -10) was 81.2 and 82.0022 and 77.8788 and 85.9249 and 85.1011 and 79.182 and 77.4265 and 78.3979 and 80.8371 and 80.8046 and 84.4497. For the same compound, the “cAMP levels, co-stimulation” value (hA1R [1]; Log [Agonist] -11) was 88.4 and 88.5187 and 87.9157 and 89.0024 and 88.907 and 88.1183 and 87.8424 and 87.9978 and 88.3592 and 88.3546 and 88.8294, the “cAMP levels, co-stimulation” value (hA1R [1]; Log [Agonist] -12) was 89.2835 and 89.2206 and 89.333 and 89.3233 and 89.2419 and 89.2129 and 89.2293 and 89.267 and 89.2665 and 89.3154 and 89.3 and the “cAMP levels, co-stimulation” value (hA1R [1]; Log [Agonist] -13) was 89.2835 and 89.2206 and 89.333 and 89.3. For the same compound, the “Range hA1R” value (hA1R [1]) was 48.97 ± 0.7%, the membrane hyperpolarisation ([2]; CPA 300 nM in the presence of BnOCPA 300 nM) was 2.75 ± 0.48 mV and the “[3H]DPCPX binding, agonist displacement (Fig. 1bii)” value (“[3H]DPCPX binding” for short) (hA1R [3]; Log [Agonist] -4 (printed 100 nM), individual repeat) was 20.2642 and 4.4733 and -15.7273 and -5.192 and 4.0456. The “[3H]DPCPX binding” value (hA1R [3]; Log [Agonist] -4 (printed 100 nM), mean) was 1.6, the “[3H]DPCPX binding” value (hA1R [3]; Log [Agonist] -5 (10 nM [sic]), individual repeat) was 11.1387 and 7.285 and -0.8835 and -5.9519 and 7.949 and the “[3H]DPCPX binding” value (hA1R [3]; Log [Agonist] -5 (10 nM [sic]), mean) was 3.9. For the same compound, the “[3H]DPCPX binding” value (hA1R [3]; Log [Agonist] -6) was 33.4844 and 35.0135 and 37.1916 and 34.6828 and 36.5376, the “[3H]DPCPX binding” value (hA1R [3]; Log [Agonist] -6, mean) was 35.4 and the “[3H]DPCPX binding” value (hA1R [3]; Log [Agonist] -7 (0.1 nM [sic])) was 68.5034 and 65.597 and 37.2069 and 75.7359 and 85.6552. The “[3H]DPCPX binding” value (hA1R [3]; Log [Agonist] -7 (0.1 nM [sic]), mean) was 66.5, the “[3H]DPCPX binding” value (hA1R [3]; Log [Agonist] -8 (0.01 nM [sic])) was 82.5188 and 76.3158 and 97.3862 and 99.1923 and 79.3577 and the “[3H]DPCPX binding” value (hA1R [3]; Log [Agonist] -8 (0.01 nM [sic]), mean) was 87.0. For the same compound, the “[3H]DPCPX binding” value (hA1R [3]; Log [Agonist] -9 (0.001 nM [sic])) was 135.427 and 110.895 and 123.979 and 110.925 and 95.1958 and the “[3H]DPCPX binding” value (hA1R [3]; Log [Agonist] -9 (0.001 nM [sic]), mean) was 115.3.

OC[C@H]1O[C@@H](n2cnc3c(N[C@@H]4CCC[C@H]4O)ncnc32)[C@H](O)[C@@H]1O [HOCPA, (2 R,3 R,4 S,5 R)−2-(6-{[(1 R,2 R)−2-hydroxycyclopentyl]amino}−9H-purin-9-yl)−5-(hydroxymethyl)oxolane-3,4-diol] was tested, and the IC50 (rA3R; half-maximal response, cAMP inhibition, read-out: pIC50 rA3R (converted)) was 0.0389 µM, the “Range rA3R” value (rA3R) was 68.79 ± 3.70% and the IC50 (hA1R [1]) was 0.000832 µM. For the same compound, the “Range hA1R” value (hA1R [1]) was 60.52 ± 1.5%, the membrane hyperpolarisation ([2]; HOCPA 300 nM) was 5.3 ± 0.5 mV and the Ki (hA1R [3]; displacement of [3H]-DPCPX, CHO-K1-hA1R, read-out: pKi hA1R (converted)) was 1.55 µM.
